From article PMC5371667, “Targeting Bile Acid Receptors: Discovery of a Potent and Selective Farnesoid X Receptor Agonist as a New Lead in the Pharmacological Approach to Liver Diseases” (Frontiers in Pharmacology, 2017)

How the values were obtained:
GST-fusion FXR-LBD = target: T1, GST-fusion FXR-LBD (Homo sapiens, UniProt Q96RI1); experiment: Alpha Screen coactivator (SRC-1 peptide) recruitment assay; assay type: biochemical
T1 construct: 10 nM of purified GST-tagged FXR-LBD protein
T1 sequence (Q96RI1 262-486 limits assumed): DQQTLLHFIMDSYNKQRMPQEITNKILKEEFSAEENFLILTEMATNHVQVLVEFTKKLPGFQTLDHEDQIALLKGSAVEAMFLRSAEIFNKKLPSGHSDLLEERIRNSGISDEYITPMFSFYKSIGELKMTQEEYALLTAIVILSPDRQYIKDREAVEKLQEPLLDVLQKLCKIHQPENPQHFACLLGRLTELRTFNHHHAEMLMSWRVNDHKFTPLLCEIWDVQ
Description: Activation of FXR was determined by Alpha Screen Technology in a Coactivator Recruitment Assay. Anti-GST-coated acceptor beads were used to capture the GST-fusion FXR-LBD, whereas the biotinylated-SRC-1 peptide was captured by the streptavidin donor beads. Upon illumination at 680 nm, chemical energy is transferred from donor to acceptor beads across the complex streptavidin-donor/[…]-LBD/anti-GST-acceptor and a signal is produced. The assay was performed in white, low-volume, 384-well Optiplates (PerkinElmer) using a final volume of 25 μL containing final concentrations of 10 nM of purified GST-tagged FXR-LBD protein, 30 nM biotinylated SRC-1 peptide, 20 μg/mL anti-GST acceptor beads, and 10 μg/mL of streptavidin donor bead (PerkinElmer). The assay buffer contained 50 mM Tris (pH 7.4), 50 mM KCl and 1 mM DTT. The stimulation times with 1 μL of tested compound (dissolved in 50% DMSO/H2O) were fixed to 30 min at room temperature. The concentration of DMSO in each well was maintained at a final concentration of 2%. After the addition of the detection mix (acceptor and donor beads), the plates were incubated in the dark for 3 h at room temperature and then were read in an Envision microplate analyzer (PerkinElmer).

hFXR = target: T2, hFXR (Homo sapiens, UniProt Q96RI1); experiment: FXR transactivation on HepG2 cells (luciferase reporter); assay type: cell-based
T2 construct: expressed in transfected cells; host or cells: HepG2
T2 sequence (Q96RI1 1-486): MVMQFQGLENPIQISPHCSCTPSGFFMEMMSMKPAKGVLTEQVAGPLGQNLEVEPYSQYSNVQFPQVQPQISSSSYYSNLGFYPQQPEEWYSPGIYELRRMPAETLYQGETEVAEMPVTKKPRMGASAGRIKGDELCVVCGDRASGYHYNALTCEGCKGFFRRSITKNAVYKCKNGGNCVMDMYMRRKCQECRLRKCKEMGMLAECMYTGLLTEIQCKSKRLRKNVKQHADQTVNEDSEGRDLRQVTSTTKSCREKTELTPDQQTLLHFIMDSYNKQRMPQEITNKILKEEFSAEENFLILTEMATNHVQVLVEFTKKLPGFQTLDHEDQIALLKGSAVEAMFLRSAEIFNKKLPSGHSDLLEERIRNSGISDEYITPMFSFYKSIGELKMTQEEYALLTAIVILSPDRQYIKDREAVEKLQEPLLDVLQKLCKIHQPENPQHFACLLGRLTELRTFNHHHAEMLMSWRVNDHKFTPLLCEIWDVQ
T2 sequence (P19793 1-462 partner): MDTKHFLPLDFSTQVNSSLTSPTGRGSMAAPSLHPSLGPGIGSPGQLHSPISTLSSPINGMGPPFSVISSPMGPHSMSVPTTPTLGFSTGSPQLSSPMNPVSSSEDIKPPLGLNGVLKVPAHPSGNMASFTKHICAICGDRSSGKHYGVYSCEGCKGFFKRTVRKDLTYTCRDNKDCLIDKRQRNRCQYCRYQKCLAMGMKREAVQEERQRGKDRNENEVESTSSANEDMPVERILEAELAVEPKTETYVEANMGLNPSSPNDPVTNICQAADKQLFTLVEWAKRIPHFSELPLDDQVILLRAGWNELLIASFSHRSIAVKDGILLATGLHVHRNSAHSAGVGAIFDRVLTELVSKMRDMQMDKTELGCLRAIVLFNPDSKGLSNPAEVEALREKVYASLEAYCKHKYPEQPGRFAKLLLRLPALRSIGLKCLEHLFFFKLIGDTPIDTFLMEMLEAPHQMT
Description: HepG2 (HB, 8065 from ATCC), an immortalized human epatocarcinoma cell line, was cultured and maintained at 37°C and 5% CO2 in E-MEM additioned with 10% FBS, 1% glutamine, and 1% penicillin/streptomycin. For FXR mediated transactivation, HepG2 cells were plated at 5 × 10^4 cells/well in a 24 well plate. Cells were transfected with 200 ng of the reporter vector p(hsp27)-TK-LUC containing a FXR response element (IR1) cloned from the promoter of heat shock protein 27 (hsp27), 100 ng of pSG5-FXR, 100 ng of pSG5-RXR, and 100 ng of pGL4.70 (Promega), a vector encoding the human Renilla gene. For GPBAR1 mediated transactivation, HepG2 cells were plated at 5 × 10^4 cells/well in a 24 well-plate and transfected with 200 ng of pGL4.29 (Promega), a reporter vector containing a cAMP response element (CRE) that drives the transcription of the luciferase reporter gene luc2P, with 100 ng of pCMVSPORT6-human GPBAR1, and with 100 ng of pGL4.70 Renilla. […]. TLCA (10 μM) was used as a positive control for GPBAR1 activity.
HepG2 cells were transfected as described above and then treated with increasing concentrations of compounds. At 18 h post stimulations, cellular lysates were assayed for luciferase and Renilla activities using the Dual-Luciferase Reporter assay system (E1980, Promega). Luminescence was measured using Glomax 20/20 luminometer (Promega). Luciferase activities were normalized with Renilla activities.

Compound: CC[C@H]1[C@@H](O)[C@@H]2[C@H](CC[C@]3(C)[C@@H]([C@H](C)CCC(=O)O)CC[C@@H]23)[C@@]2(C)CC[C@H](N=[N+]=[N-])C[C@@H]12 [compound 2, 3β-azido-6α-ethyl-7α-hydroxy-5β-cholan-24-oic acid]
- EC50 (GST-fusion FXR-LBD; recruitment of SRC-1 co-activator peptide, Alfa Screen, Table 1): 610 ± 90 nM
- Efficacy (GST-fusion FXR-LBD; recruitment of SRC-1 co-activator peptide, Alfa Screen, Table 1, 6-ECDCA = 100): 90
- efficacy respect to 6-ECDCA (GST-fusion FXR-LBD; recruitment of SRC-1 peptide): 90%
- EC50 (hFXR; 10 nM to 25 μM, 18 h): 846 nM
- FXR transactivation compared with 6-ECDCA (hFXR; 10 μM): equipotent with 6-ECDCA
